Test results reported in US20240317743A1, “Solid Forms of BCL-2 Inhibitors, Method of Preparation, and Use Thereof” (BeiGene, Ltd., priority 2021, published 2024).
Converted amounts (≈) assume the structure as drawn.

Columns and labels:
Format in all cases: physicochemical
[1] = DVS (Method A) water uptake / hygroscopicity; settings: 25° C./80% RH
Experimental: DVS of the obtained forms in the present disclosure was measured via an SMS (Surface Measurement Systems) DVS Intrinsic, without special instructions (Method A). The relative humidity at 25° C. was calibrated against deliquescence point of LiCl, Mg(NO3)2 and KCl. Parameters for the DVS test are listed as follows. [table]

[2] = Long term and accelerated physical and chemical stability test, impurities by HPLC
Experimental: Long term and accelerated stability studies were conducted in different physical forms of Compound 1, by storing the samples at 25±2° C./60±5% RH and 40±2° C./75±5% RH conditions for up to 6 months. And, the content of the total impurities of each sample was tested by HPLC.

[3] = Solid form solubility, concentration by HPLC at 24 hours
Experimental: The solubility of Compound 1 in different physical forms was tested in water, 0.1 N HCl, pH 4.5 acetate buffer and pH 6.8 phosphate buffer. At 24 hours of time point, the concentration of Compound 1 was detected by HPLC.

[4] = Physical stability: storage under humidity/temperature, form checked by XRPD
Experimental: To evaluate the physicochemical stability, store 1˜3 mg of Forms B, S, M, R, F, H and N samples were stored under 25° C./60% RH or 40° C./75% RH conditions for one week (unsealed) or 80° C. condition for 24 hrs (sealed).

[5] = Solid form stability of Form B: slurry or shaking in acetone/H2O system at 50° C., XRPD
Experimental: Evaluation of solid form stability of Form B was performed in acetone/H2O system at 50° C. About 2 mg of Form B sample was used to slurry or shake in the acetone/H2O (1:9, v/v) and H2O solution (saturated by amorphous sample).

[6] = Storage at RT, form checked by XRPD overlay; settings: RT, ~3 days
Experimental: Form K was speculated as a methyl acetate solvate.
Thus, Form L was speculated as a metastable anhydrate/hydrate which could be de-solvated from the wet cake from the solvent system.
(peak) before decomposition (FIG. 16B). According to the integration of ^1H NMR result (FIG. 16C), the theoretical weight of chlorobenzene was calculated as 9.8%, which matched with the TGA weight loss. […] After heating the sample to 140° C., more diffraction peaks disappeared. Combined with the TGA, ^1H NMR data and heating experiment, Form P was speculated as a chlorobenzene solvate.

With `CC(C)c1ccccc1[C@@H]1CCCN1C1CC2(CCN(c3ccc(C(=O)NS(=O)(=O)c4ccc(NCC5CCC(C)(O)CC5)c([N+](=O)[O-])c4)c(Oc4cnc5[nH]ccc5c4)c3)CC2)C1` (stereo partly drawn) [Compound 1 amorphous, 2-((1H-pyrrolo[2,3-b]pyridin-5-yl)oxy)-N-((4-((((1r,4r)-4-hydroxy-4-methylcyclohexyl)methyl)amino)-3-nitrophenyl)sulfonyl)-4-(2-((S)-2-(2-isopropylphenyl)pyrrolidin-1-yl)-7-azaspiro[3.5]nonan-7-yl)benzamide] as the molecule, how does the water uptake ([1]; listed as amorphous form) read?
The water uptake was 1.8%.

And the “change of chemical purity” value ([2]; 25±2° C./60±5% RH and 40±2° C./75±5% RH, up to 6 months)?
The value was “reduced significantly”.

What about the “total content of impurities” value ([2]; after 6 months at 40±2° C./75±5% RH) of the same molecule?
The value was 4.2%.

What about the “total content of impurities” value ([2]; before storage (initial)) of the same molecule?
The value was 2.10%.

And the solubility ([3]; 0.1 N HCl)?
The solubility was 35.30 µg/mL (≈ 39.7 µM).

What about the solubility ([3]; pH 4.5 acetate buffer) of the same molecule?
Its solubility is “no Compound 1 was detected”.

What about the solubility ([3]; pH 6.8 phosphate buffer) of the same molecule?
The solubility was “no Compound 1 was detected”.

What about the solubility ([3]; water) of the same molecule?
The solubility was “no Compound 1 was detected”.

With `CC(C)c1ccccc1[C@@H]1CCCN1C1CC2(CCN(c3ccc(C(=O)NS(=O)(=O)c4ccc(NCC5CCC(C)(O)CC5)c([N+](=O)[O-])c4)c(Oc4cnc5[nH]ccc5c4)c3)CC2)C1` (stereo partly drawn) [Form B, 2-((1H-pyrrolo[2,3-b]pyridin-5-yl)oxy)-N-((4-((((1r,4r)-4-hydroxy-4-methylcyclohexyl)methyl)amino)-3-nitrophenyl)sulfonyl)-4-(2-((S)-2-(2-isopropylphenyl)pyrrolidin-1-yl)-7-azaspiro[3.5]nonan-7-yl)benzamide] as the molecule, how does the hygroscopicity [1] read?
The hygroscopicity was “slight hygroscopicity”.

What about the water uptake [1] of the same molecule?
The water uptake was 0.9%.

What about the “form change (XRPD overlay)” value ([4]; 25° C./60% RH, one week, unsealed) of the same molecule?
The value was “no form change”.

And the “form change (XRPD overlay)” value ([4]; 40° C./75% RH, one week, unsealed)?
Its value is “no form change”.

And the “form change (XRPD overlay)” value ([4]; 80° C., sealed, 24 hrs)?
Its value is “no form change”.

And the “crystalline status (XRPD overlay)” value ([5]; shaking in H2O, about 4 hours)?
The value was “no form change was observed”.

What about the “crystalline status (XRPD overlay)” value ([5]; shaking in H2O, about 4 days) of the same molecule?
Its value is “no form change was observed”.

And the “crystalline status (XRPD overlay)” value ([5]; shaking in acetone/H2O (1:9, v/v), about 4 hours)?
Its value is “no form change was observed”.

And the “crystalline status (XRPD overlay)” value ([5]; shaking in acetone/H2O (1:9, v/v), about 4 days)?
Its value is “no form change was observed”.

And the “crystalline status (XRPD overlay)” value ([5]; slurrying in H2O, about 4 hrs)?
The value was “no form change was observed”.

And the “crystalline status (XRPD overlay)” value ([5]; slurrying in H2O, about 4 days)?
Its value is “a decrease of crystallinity was observed”.

And the “crystalline status (XRPD overlay)” value ([5]; slurrying in acetone/H2O (1:9, v/v), about 4 days)?
The value was “a decrease of crystallinity was observed”.

With `CC(C)c1ccccc1[C@@H]1CCCN1C1CC2(CCN(c3ccc(C(=O)NS(=O)(=O)c4ccc(NCC5CCC(C)(O)CC5)c([N+](=O)[O-])c4)c(Oc4cnc5[nH]ccc5c4)c3)CC2)C1` (stereo partly drawn) [Form T, 2-((1H-pyrrolo[2,3-b]pyridin-5-yl)oxy)-N-((4-((((1r,4r)-4-hydroxy-4-methylcyclohexyl)methyl)amino)-3-nitrophenyl)sulfonyl)-4-(2-((S)-2-(2-isopropylphenyl)pyrrolidin-1-yl)-7-azaspiro[3.5]nonan-7-yl)benzamide] as the molecule, how does the “form change on storage” value [6] read?
Its value is “convert back to Form N”.
